Data reported in patent EP2649091B1, “IMMUNE RESTRICTED PEPTIDES WITH INCREASED EFFICACY” (Stichting Het Nederlands Kanker Instituut, priority 2010, dated 2012).
Where no end group is shown, it is not given here. am‑phg = not defined here

Experiments:
[1] = tested on: CD8+ T cells with SVYDFFVWL (Melanoma, TRP-2, residues 180-188) specific T cell receptor; assay: T cell activation time course assay, IFNγ production by FACS, TRP-2 epitope; type: cell-based; settings: 48H, peptide 50 picomolar
Description: FACS was employed to obtain results.
Also for this epitope, an IFNγ expression time-course experiment was performed. The two distinguishing time points 24H and 48H were taken along at peptide concentrations of 5·10^3 pM, 50 pM and 0.5 pM.

HLA-A0201 = HLA-A0201 (Homo sapiens, UniProt P04439, D140Y/D185E/D98H/E176V/E277Q/G131W/G231S/I119V/I121R/I166T/I218V/L300P/L318F/N151K/N90K/P208A/P217A/Q86G/Q94H/R138H/R169H/T345S); type: binding
[2] = tested on: CD8+ T cells from Influenza A positive donors sorted using tetramers containing HLA A2.1::[…]; type: cell-based
[3] = tested on: CD8+ T cells from Influenza A positive donors sorted using tetramers containing HLA A2.1::[…]; type: cell-based; remark: listed apart in the source

| Substance | % CD8+ T cells producing IFN-γ [1] | % inhibition at T=4H and T=24H FP 4h (HLA-A0201) | % inhibition at T=4H and T=24H FP 24h (HLA-A0201) | IC50 Ratio (HLA-A0201) | % CD8+ T cells producing IFN-γ % IFN [2] | Geometric mean IFN-γ in arbitrary fluorescence units Geo IFN [2] | % Positive TCR recognition % TCR [3] | Geometric mean IFN in arbitrary fluorescence units Geo TCR [3] |
| --- | --- | --- | --- | --- | --- | --- | --- | --- |
| [CSME][2-AOC]YDFFVWL | significantly above background level | – | – | – | – | – | – | – |
| [am-phg][2-AOC]YDFFVWL ({am‑phg-2‑AOC}-YDFFVWL; reading uncertain; also: printed as [am-phg][2-AOC]YDFFVWL) | significantly above background level | – | – | – | – | – | – | – |
| [am-phg][BUTALA]LGFV[4-FPHE]TL | – | 83% | 84% | 3 | 2.6% | 266 arbitrary fluorescence units | 3.20% | 217 arbitrary fluorescence units |
| [am-phg][CpALA]LGFVFTL | – | – | 91% | 2 | 2.2% | 259 arbitrary fluorescence units | 3.17% | 150 arbitrary fluorescence units |
| [am-phg][CpALA]LGFV[4-FPHE]TL | – | 96% | 96% | 5 | 2.8% | 243 arbitrary fluorescence units | 3.26% | 208 arbitrary fluorescence units |
| [am-phg][NLE]LGFV[4-FPHE]TL | – | 82% | 83% | 3 | 3.0% | 221 arbitrary fluorescence units | 3.40% | 302 arbitrary fluorescence units |
| [am-phg][NVA]LGFV[4-FPHE]TL | – | – | 97% | 2 | 3.4% | 242 arbitrary fluorescence units | 3.54% | 143 arbitrary fluorescence units |
| [am-phg][NVA]YDFFVWL (N-terminal am-phg and NVA) | significantly above background level | – | – | – | – | – | – | – |
